Source: ChEMBL document CHEMBL5505958, “Optimization of sequence and chiral content enhances therapeutic potential of tilapia piscidin peptides” (Eur J Med Chem, 2024)
Values after ≈ are worked out from the molar mass of the structure shown. Active and inactive are the calls of the source. The calls are words filed in the database; no cut-off is given here.

What was measured:
[1] = tested on: Escherichia coli; experiment: Antibacterial activity against Escherichia coli 10675 assessed as inhibition of bacterial growth incubated for 16 to 20 hrs; type: functional; conditions: time 16-20 hrs
[2] = tested on: Klebsiella pneumoniae; experiment: Antibacterial activity against Klebsiella pneumoniae 10692 assessed as inhibition of bacterial growth incubated for 16 to 20 hrs; type: functional; conditions: time 16-20 hrs
[3] = tested on: Acinetobacter baumannii; experiment: Antibacterial activity against Acinetobacter baumannii 10591 assessed as inhibition of bacterial growth incubated for 16 to 20 hrs; type: functional; conditions: time 16-20 hrs
[4] = tested on: Enterococcus faecium; experiment: Antibacterial activity against Enterococcus faecium 10067 assessed as inhibition of bacterial growth incubated for 16 to 20 hrs; type: functional; conditions: time 16-20 hrs
[5] = tested on: Enterococcus faecalis; experiment: Antibacterial activity against Enterococcus faecalis 10066 assessed as inhibition of bacterial growth incubated for 16 to 20 hrs; type: functional; conditions: time 16-20 hrs
[6] = tested on: Rhizopus arrhizus; experiment: Antifungal activity against Rhizopus oryzae 34550 assessed as inhibition of fungal growth incubated for 16 to 20 hrs; type: functional; conditions: time 16-20 hrs
[7] = tested on: Escherichia coli; experiment: Bactericidal activity against Escherichia coli 10675 assessed as inhibition of bacterial growth incubated for 16 to 20 hrs; type: functional; conditions: time 16-20 hrs
[8] = tested on: Klebsiella pneumoniae; experiment: Bactericidal activity against Klebsiella pneumoniae 10692 assessed as inhibition of bacterial growth incubated for 16 to 20 hrs; type: functional; conditions: time 16-20 hrs
[9] = tested on: Acinetobacter baumannii; experiment: Bactericidal activity against Acinetobacter baumannii 10591 assessed as inhibition of bacterial growth incubated for 16 to 20 hrs; type: functional; conditions: time 16-20 hrs
[10] = tested on: Vibrio vulnificus; experiment: Bactericidal activity against Vibrio vulnificus 204 assessed as inhibition of bacterial growth incubated for 16 to 20 hrs; type: functional; conditions: time 16-20 hrs
[11] = tested on: Enterococcus faecium; experiment: Bactericidal activity against Enterococcus faecium 10067 assessed as inhibition of bacterial growth incubated for 16 to 20 hrs; type: functional; conditions: time 16-20 hrs
[12] = tested on: Enterococcus faecalis; experiment: Bactericidal activity against Enterococcus faecalis 10066 assessed as inhibition of bacterial growth incubated for 16 to 20 hrs; type: functional; conditions: time 16-20 hrs
[13] = tested on: Acinetobacter baumannii; experiment: Antibacterial activity against Acinetobacter baumannii 10591 assessed as inhibition of bacterial growth incubated for 16 to 20 hrs in presence of human serum; type: functional; conditions: time 16-20 hrs
[14] = tested on: Pseudomonas aeruginosa; experiment: Antibacterial activity against Pseudomonas aeruginosa 19660 assessed as inhibition of bacterial growth incubated for 16 to 20 hrs in presence of human serum; type: functional; conditions: time 16-20 hrs
[15] = tested on: Salmonella typhimurium; experiment: Antibacterial activity against Salmonella typhimurium DT104 assessed as inhibition of bacterial growth incubated for 16 to 20 hrs in presence of human serum; type: functional, Salmonella enterica subsp. enterica serovar Typhimurium; conditions: Salmonella enterica, time 16-20 hrs
[16] = tested on: Salmonella enterica; experiment: Antibacterial activity against Salmonella enterica 15455 assessed as inhibition of bacterial growth incubated for 16 to 20 hrs in presence of human serum; type: functional; conditions: time 16-20 hrs
[17] = tested on: Staphylococcus aureus; experiment: Antibacterial activity against Staphylococcus aureus 10780 assessed as inhibition of bacterial growth incubated for 16 to 20 hrs in presence of human serum; type: functional; conditions: time 16-20 hrs
[18] = tested on: Enterococcus faecium; experiment: Antibacterial activity against Enterococcus faecium 10067 assessed as inhibition of bacterial growth incubated for 16 to 20 hrs in presence of human serum; type: functional; conditions: time 16-20 hrs
[19] = tested on: Rhizopus arrhizus; experiment: Antifungal activity against Rhizopus oryzae 34550 assessed as inhibition of fungal growth incubated for 16 to 20 hrs in presence of human serum; type: functional; conditions: time 16-20 hrs
[20] = tested on: Salmonella typhimurium; experiment: Bactericidal activity against Salmonella typhimurium DT104 assessed as inhibition of bacterial growth incubated for 16 to 20 hrs in presence of human serum; type: functional, Salmonella enterica subsp. enterica serovar Typhimurium; conditions: Salmonella enterica, time 16-20 hrs
[21] = tested on: Salmonella enterica; experiment: Bactericidal activity against Salmonella enterica 15455 assessed as inhibition of bacterial growth incubated for 16 to 20 hrs in presence of human serum; type: functional; conditions: time 16-20 hrs
[22] = tested on: Staphylococcus aureus; experiment: Bactericidal activity against Staphylococcus aureus 10780 assessed as inhibition of bacterial growth incubated for 16 to 20 hrs in presence of human serum; type: functional; conditions: time 16-20 hrs
[23] = tested on: Klebsiella pneumoniae; experiment: Antibacterial activity against Klebsiella pneumoniae BAA 2473 assessed as inhibition of bacterial growth in presence of 0.1 microg/ml of trypsin (reference value: 1.56 to 3.13 microM); type: functional
[24] = tested on: Klebsiella pneumoniae; experiment: Antibacterial activity against Klebsiella pneumoniae BAA 2473 assessed as inhibition of bacterial growth in presence of 10 microg/ml of trypsin (reference value: 1.56 to 3.13 microM); type: functional
[25] = tested on: Klebsiella pneumoniae; experiment: Antibacterial activity against Klebsiella pneumoniae BAA 2473 assessed as inhibition of bacterial growth in presence of 10 microg/ml of chymotrypsin (reference value: 1.56 to 3.13 microM); type: functional
[26] = tested on: Klebsiella pneumoniae; experiment: Antibacterial activity against Klebsiella pneumoniae BAA 2473 assessed as inhibition of bacterial growth in presence of 0.1 microg/ml of pepsin (reference value: 1.56 to 3.13 microM); type: functional
[27] = tested on: Klebsiella pneumoniae; experiment: Antibacterial activity against Klebsiella pneumoniae BAA 2473 assessed as inhibition of bacterial growth in presence of 10 microg/ml of pepsin (reference value: 1.56 to 3.13 microM); type: functional
[28] = tested on: Klebsiella pneumoniae; experiment: Antibacterial activity against Klebsiella pneumoniae BAA 2473 assessed as inhibition of bacterial growth in presence of 0.1 microg/ml of proteinase K (reference value: 1.56 to 3.13 microM); type: functional
[29] = tested on: Klebsiella pneumoniae; experiment: Bactericidal activity against Klebsiella pneumoniae BAA 2473 assessed as inhibition of bacterial growth in presence of 10 microg/ml of trypsin (reference value: 1.56 to 3.13 microM); type: functional
[30] = tested on: Klebsiella pneumoniae; experiment: Bactericidal activity against Klebsiella pneumoniae BAA 2473 assessed as inhibition of bacterial growth in presence of 0.1 microg/ml of chymotrypsin (reference value: 1.56 to 3.13 microM); type: functional
[31] = tested on: Klebsiella pneumoniae; experiment: Bactericidal activity against Klebsiella pneumoniae BAA 2473 assessed as inhibition of bacterial growth in presence of 0.1 microg/ml of pepsin (reference value: 1.56 to 3.13 microM); type: functional
[32] = tested on: Klebsiella pneumoniae; experiment: Bactericidal activity against Klebsiella pneumoniae BAA 2473 assessed as inhibition of bacterial growth in presence of 1 microg/ml of proteinase K (reference value: 1.56 to 3.13 microM); type: functional
[33] = tested on: Klebsiella pneumoniae; experiment: Bactericidal activity against Klebsiella pneumoniae BAA 2473 assessed as inhibition of bacterial growth in presence of 10 microg/ml of proteinase K (reference value: 1.56 to 3.13 microM); type: functional
[34] = tested on: Lipopolysaccharide (LPS); experiment: Displacement of BODIPY-TR-cadaverine from Klebsiella pneumoniae BAA 2473 lipopolysaccharide (LPS) assessed as increase in fluorescence intensity at 3.125 uM by fluorescence spectrophotometric analysis; type: subcellular
[35] = tested on: Cell membrane; experiment: Induction of outer cell membrane permeabilization in Klebsiella pneumoniae BAA 2473 assessed as increase in fluorescence intensity by NPN uptake assay; type: cell membranes
[36] = tested on: Klebsiella pneumoniae; experiment: Induction of morphological changes in Klebsiella pneumoniae BAA 2473 assessed as membrane deformations with protruding granules at by transmission electron microscopy analysis; type: functional, organism-based
[37] = tested on: Pseudomonas aeruginosa; experiment: Antibacterial activity against Pseudomonas aeruginosa 19660 assessed as inhibition of bacterial growth incubated for 16 to 20 hrs; type: functional; conditions: time 16-20 hrs
[38] = tested on: Klebsiella pneumoniae; experiment: Antibacterial activity against Klebsiella pneumoniae BAA 2473 assessed as bacterial eradication measured at 10 hrs; type: functional, organism-based
[39] = tested on: Klebsiella pneumoniae; experiment: Antibacterial activity against Klebsiella pneumoniae BAA 2473 assessed as inhibition of bacterial growth in presence of doxycycline; type: functional
[40] = tested on: Klebsiella pneumoniae; experiment: Antibacterial activity against Klebsiella pneumoniae BAA 2473 assessed as inhibition of bacterial growth in presence of ciprofloxacin; type: functional
[41] = tested on: Klebsiella pneumoniae; experiment: Synergistic antibacterial activity against Klebsiella pneumoniae BAA 2473 assessed as fractional inhibitory concentration index in presence of doxycycline by checkerboard assay; type: functional

H-FIHHIIGGLFSAGKAIHRLIRRRRR-OH
MIC [1]: 6.25 µM
MIC [2]: 0.78 µM
MIC [3]: 1.56 µM
MIC [4]: 0.39 µM
MIC [5]: 3.13 µM
MIC [6]: 1.56 µM
MBC [7]: 6.25 µM
MBC [8]: 0.78 µM
MBC [9]: 1.56 µM
MBC [10]: 3.13 µM
MBC [11]: 0.78 µM
MBC [12]: 3.13 µM
MIC [13]: 100 µM
MIC [14]: > 100 µM
MIC [15]: > 100 µM
MIC [16]: 100 µM
MIC [17]: > 100 µM
MIC [18]: 100 µM
MIC [19]: > 25 µM
MBC [20]: > 100 µM
MBC [21]: 100 µM
MBC [22]: 50 µM
MIC [23]: 1.56 µM
MIC [24]: > 100 µM
MIC [25]: > 100 µM
MIC [26]: 1.56 µM
MIC [27]: > 100 µM
MIC [28]: 1.56 µM
MBC [29]: > 100 µM
MBC [30]: 1.56 µM
MBC [31]: 3.13 µM
MBC [32]: > 100 µM
MBC [33]: > 100 µM
Activity [34]: 95%
Activity [35]: Active
Activity [36]: Active

CC(C)C[C@H](NC(=O)[C@@H](C)NC(=O)[C@@H](CCCCN)NC(=O)[C@H](CC(C)C)NC(=O)[C@@H](CC(C)C)NC(=O)[C@@H](CCCCN)NC(=O)[C@H](CCCCN)NC(=O)[C@@H](CC(C)C)NC(=O)[C@H](N)Cc1ccccc1)C(=O)N[C@H](Cc1ccccc1)C(=O)N[C@H](CO)C(=O)N[C@@H](C)C(=O)N1CCC[C@@H]1C(=O)N[C@H](CCCCN)C(=O)N[C@@H](C)C(=O)N[C@H](CC(C)C)C(=O)N[C@H](CCCCN)C(=O)N[C@@H](CCCNC(=N)N)C(=O)N[C@H](CC(C)C)C(=O)N[C@H](CC(C)C)C(=O)N[C@@H](CCCNC(=N)N)C(=O)N[C@H](CCCNC(=N)N)C(=O)N[C@H](CCCNC(=N)N)C(=O)N[C@@H](CCCNC(=N)N)C(=O)N[C@@H](CCCNC(=N)N)C(=O)O
MIC [1]: 1.56 µM (≈ 4.8 µg/mL)
MIC [2]: 6.25 µM (≈ 19.2 µg/mL)
MIC [3]: 3.13 µM (≈ 9.64 µg/mL)
MIC [37]: 3.13 µM (≈ 9.64 µg/mL)
MIC [4]: 3.13 µM (≈ 9.64 µg/mL)
MIC [5]: > 25 µM
MIC [6]: 1.56 µM (≈ 4.8 µg/mL)
MBC [7]: 1.56 µM (≈ 4.8 µg/mL)
MBC [8]: 25 µM (≈ 77 µg/mL)
MBC [9]: 3.13 µM (≈ 9.64 µg/mL)
MBC [10]: 12.5 µM (≈ 38.5 µg/mL)
MBC [11]: 12.5 µM (≈ 38.5 µg/mL)
MBC [12]: 12.5 µM (≈ 38.5 µg/mL)
MIC [13]: 1.56 µM
MIC [14]: 6.25 µM
MIC [15]: 6.25 µM
MIC [16]: 0.78 µM
MIC [17]: 6.25 µM
MIC [18]: 100 µM
MIC [19]: 6.25 µM
MBC [20]: 6.25 µM
MBC [21]: 0.78 µM
MBC [22]: > 100 µM
MIC [23]: 0.78 µM
MIC [24]: 0.78 µM
MIC [25]: 0.78 µM
MIC [26]: 0.78 µM
MIC [27]: 0.78 µM
MIC [28]: 0.78 µM
MBC [29]: 1.56 µM
MBC [30]: 0.78 µM
MBC [31]: 1.56 µM
MBC [32]: 0.78 µM
MBC [33]: 1.56 µM
Activity [38]: Active
Activity [34]: 100%
Activity [35]: Active
Activity [36]: Active
MIC [39]: 0.39 µM
MIC [40]: 1.56 µM
fractional inhibitory concentration index (FICI) [41]: 0.5
